Reference: patent publication US8445408B2, “Pyrimidine derivatives and their use for controlling undesired plant growth” (Bayer Cropscience AG, priority 2008, dated 2013)

What was measured:
Veronica persica [1] = assay: Pre-emergence herbicidal effect; format: in vivo; details: Dosage 320 (0.32 kg active substance per hectare); visual scoring after 3 weeks vs untreated controls; 100% = plants have died
From the text: (§1) Seeds of monocotyledonous or dicotyledonous weed plants or crop plants are planted in wood-fiber pots in sandy loam and covered with earth. The compounds according to the invention, formulated in the form of wettable powders (WP) or as emulsion concentrates (EC), are then applied as aqueous suspension or emulsion at a water application rate of 600 to 800 I/ha (converted) with the addition of 0.2% of wetting agent to the surface of the covering earth. Following the treatment, the pots are placed in a greenhouse and kept under good growth conditions for the test plants. The visual scoring of the damage on the test plants is carried out after an experiment time of 3 weeks in comparison with untreated controls (herbicidal effect in percent (%): 100% effect=plants have died, 0% effect=as control plants). [table]

Amaranthus retroflexus [2] = assay: Pre-emergence herbicidal effect; format: in vivo; details: Dosage 320 (0.32 kg active substance per hectare); visual scoring after 3 weeks vs untreated controls; 100% = plants have died
From the text: as §1

Alopecurus myosuroides = assay: Pre-emergence herbicidal effect; format: in vivo; details: Dosage 320 (0.32 kg active substance per hectare); visual scoring after 3 weeks vs untreated controls; 100% = plants have died
From the text: as §1

Setaria viridis [3] = assay: Pre-emergence herbicidal effect; format: in vivo; details: Dosage 320 (0.32 kg active substance per hectare); visual scoring after 3 weeks vs untreated controls; 100% = plants have died
From the text: as §1

Viola tricolor [4] = assay: Pre-emergence herbicidal effect; format: in vivo; details: Dosage 320 (0.32 kg active substance per hectare); visual scoring after 3 weeks vs untreated controls; 100% = plants have died
From the text: as §1

Matricaria inodora [5] = assay: Pre-emergence herbicidal effect; format: in vivo; details: Dosage 320 (0.32 kg active substance per hectare); visual scoring after 3 weeks vs untreated controls; 100% = plants have died
From the text: as §1

Stellaria media [6] = assay: Pre-emergence herbicidal effect; format: in vivo; details: Dosage 320 (0.32 kg active substance per hectare); visual scoring after 3 weeks vs untreated controls; 100% = plants have died
From the text: as §1

Polygonum convolvulus [7] = assay: Pre-emergence herbicidal effect; format: in vivo; details: Dosage 320 (0.32 kg active substance per hectare); visual scoring after 3 weeks vs untreated controls; 100% = plants have died
From the text: as §1

Lolium multiflorum [8] = assay: Pre-emergence herbicidal effect; format: in vivo; details: Dosage 320 (0.32 kg active substance per hectare); visual scoring after 3 weeks vs untreated controls; 100% = plants have died
From the text: as §1

Echinochloa crus-galli [9] = assay: Pre-emergence herbicidal effect; format: in vivo; details: Dosage 320 (0.32 kg active substance per hectare); visual scoring after 3 weeks vs untreated controls; 100% = plants have died
From the text: as §1

Setaria viridis [10] = assay: Post-emergence herbicidal effect; format: in vivo; details: Dosage 320 (0.32 kg active substance per hectare); treated in one-leaf stage; visual scoring after ca. 3 weeks vs untreated controls; 100% = plants have died
Protocol: (§2) [table] 2. Post-emergence herbicidal effect and crop plant compatibility Seeds of monocotyledonous or dicotyledonous weed plants or crop plants are planted in wood-fiber pots in sandy loam, covered with earth and grown in a greenhouse under good growth conditions. 2 to 3 weeks after sowing, the test plants are treated in the one-leaf stage. The compounds according to the invention, formulated in the form of wettable powders (WP) or as emulsion concentrates (EC), are then sprayed onto the green plant parts as aqueous suspension or emulsion at a water application rate of 600 to 800 I/ha (converted) with the addition of 0.2% of wetting agent. After ca. 3 weeks' standing time of the test plants in the greenhouse under optimum growth conditions, the effect of the preparations is scored visually in comparison with untreated controls (herbicidal effect in percent (%): 100% effect=plants have died, 0% effect=as control plants).

Veronica persica [11] = assay: Post-emergence herbicidal effect; format: in vivo; details: Dosage 320 (0.32 kg active substance per hectare); treated in one-leaf stage; visual scoring after ca. 3 weeks vs untreated controls; 100% = plants have died
Protocol: as §2

Viola tricolor [12] = assay: Post-emergence herbicidal effect; format: in vivo; details: Dosage 320 (0.32 kg active substance per hectare); treated in one-leaf stage; visual scoring after ca. 3 weeks vs untreated controls; 100% = plants have died
Protocol: as §2

Pharbitis purpurea = assay: Post-emergence herbicidal effect; format: in vivo; details: Dosage 320 (0.32 kg active substance per hectare); treated in one-leaf stage; visual scoring after ca. 3 weeks vs untreated controls; 100% = plants have died
Protocol: as §2

Stellaria media [13] = assay: Post-emergence herbicidal effect; format: in vivo; details: Dosage 320 (0.32 kg active substance per hectare); treated in one-leaf stage; visual scoring after ca. 3 weeks vs untreated controls; 100% = plants have died
Protocol: as §2

Amaranthus retroflexus [14] = assay: Post-emergence herbicidal effect; format: in vivo; details: Dosage 320 (0.32 kg active substance per hectare); treated in one-leaf stage; visual scoring after ca. 3 weeks vs untreated controls; 100% = plants have died
Protocol: as §2

Lolium multiflorum [15] = assay: Post-emergence herbicidal effect; format: in vivo; details: Dosage 320 (0.32 kg active substance per hectare); treated in one-leaf stage; visual scoring after ca. 3 weeks vs untreated controls; 100% = plants have died
Protocol: as §2

Echinochloa crus-galli [16] = assay: Post-emergence herbicidal effect; format: in vivo; details: Dosage 320 (0.32 kg active substance per hectare); treated in one-leaf stage; visual scoring after ca. 3 weeks vs untreated controls; 100% = plants have died
Protocol: as §2

Abutilon theophrasti = assay: Post-emergence herbicidal effect; format: in vivo; details: Dosage 320 (0.32 kg active substance per hectare); treated in one-leaf stage; visual scoring after ca. 3 weeks vs untreated controls; 100% = plants have died
Protocol: as §2

Polygonum convolvulus [17] = assay: Post-emergence herbicidal effect; format: in vivo; details: Dosage 320 (0.32 kg active substance per hectare); treated in one-leaf stage; visual scoring after ca. 3 weeks vs untreated controls; 100% = plants have died
Protocol: as §2

[18] = logp (HCOOH), chemicophysical data; details: HCOOH (formic acid)
Cyperus esculentus = assay: Pre-emergence herbicidal effect; format: in vivo; details: Dosage 320 (0.32 kg active substance per hectare); visual scoring after 3 weeks vs untreated controls; 100% = plants have died
From the text: as §1

Matricaria inodora [19] = assay: Post-emergence herbicidal effect; format: in vivo; details: Dosage 320 (0.32 kg active substance per hectare); treated in one-leaf stage; visual scoring after ca. 3 weeks vs untreated controls; 100% = plants have died
Protocol: as §2

Chenopodium album = assay: Post-emergence herbicidal effect; format: in vivo; details: Dosage 320 (0.32 kg active substance per hectare); treated in one-leaf stage; visual scoring after ca. 3 weeks vs untreated controls; 100% = plants have died
Protocol: as §2

Compound | Pre-emergence herbicidal effect VERPE (Veronica persica [1]) [%] | Pre-emergence herbicidal effect AMARE (Amaranthus retroflexus [2]) [%] | Pre-emergence herbicidal effect ALOMY (Alopecurus myosuroides) [%] | Pre-emergence herbicidal effect SETVI (Setaria viridis [3]) [%] | Pre-emergence herbicidal effect VIOTR (Viola tricolor [4]) [%] | Pre-emergence herbicidal effect POLCO (Polygonum convolvulus [7]) [%] | Pre-emergence herbicidal effect LOLMU (Lolium multiflorum [8]) [%] | Pre-emergence herbicidal effect ECHCG (Echinochloa crus-galli [9]) [%] | Post-emergence herbicidal effect VERPE (Veronica persica [11]) [%] | Post-emergence herbicidal effect VIOTR (Viola tricolor [12]) [%] | Post-emergence herbicidal effect PHBPU (Pharbitis purpurea) [%] | Post-emergence herbicidal effect AMARE (Amaranthus retroflexus [14]) [%] | Post-emergence herbicidal effect ECHCG (Echinochloa crus-galli [16]) [%] | Post-emergence herbicidal effect ABUTH (Abutilon theophrasti) [%] | further results
Cc1cc(C)c2c(c1)C(Nc1cc(C(F)(F)F)nc(N)n1)CCC2 (racemic) [Example 1.17] | 100 | 100 |  |  |  |  |  |  |  |  |  |  |  |  | 
Cc1ccc2c(c1)[C@H](Nc1cc(C(F)F)nc(N)n1)[C@@H](C)C2 [Example 1.30] | 100 | 100 | 100 | 100 | 100 | 100 | 100 | 100 | 90 | 85 | 90 | 95 | 87 | 85 | Pre-emergence herbicidal effect MATIN (Matricaria inodora [5]): 100%; Pre-emergence herbicidal effect STEME (Stellaria media [6]): 100%; Post-emergence herbicidal effect SETVI (Setaria viridis [10]): 80%; Post-emergence herbicidal effect STEME (Stellaria media [13]): 80%; Post-emergence herbicidal effect LOLMU (Lolium multiflorum [15]): 80%
Cc1ccc2c(c1)[C@H](Nc1cc(Cl)nc(N)n1)[C@@H](C)C2 [Example 1.42] | 100 | 100 | 100 | 100 | 100 | 100 |  | 100 | 80 | 90 | 100 | 100 | 90 |  | Pre-emergence herbicidal effect MATIN (Matricaria inodora [5]): 100%; Pre-emergence herbicidal effect STEME (Stellaria media [6]): 100%; Post-emergence herbicidal effect SETVI (Setaria viridis [10]): 80%; Post-emergence herbicidal effect POLCO (Polygonum convolvulus [17]): 80%
Cc1ccc2c(c1)[C@H](Nc1cc(C(F)(F)F)nc(N)n1)[C@@H](C)C2 [Example 1.27, N4-[(1R,2S)-2,6-dimethyl-2,3-dihydro-1H-inden-1-yl]-6-(trifluoromethyl)pyrimidine-2,4-diamine] | 100 | 100 |  | 100 | 100 | 100 | 80 | 100 | 85 | 85 | 85 | 100 | 85 | 90 | Pre-emergence herbicidal effect MATIN (Matricaria inodora [5]): 100%; Pre-emergence herbicidal effect STEME (Stellaria media [6]): 100%; chromatographic logP [18]: 2.77; Post-emergence herbicidal effect SETVI (Setaria viridis [10]): 80%; Post-emergence herbicidal effect POLCO (Polygonum convolvulus [17]): 80%
Nc1nc(NC2CCc3ccccc32)cc(C(F)(F)F)n1 (racemic) [Example 1.18] | 100 | 100 |  |  |  | 100 |  |  |  |  |  |  |  |  | 
Nc1nc(Cl)cc(N[C@@H]2CCc3ccccc32)n1 [Example 1.44] | 100 | 100 |  |  | 100 | 100 |  |  |  |  |  |  |  |  | 
Nc1nc(N[C@@H]2CCc3ccccc32)cc(C(F)F)n1 [Example 1.36] |  |  |  |  |  |  |  |  | 90 | 90 | 80 | 100 | 90 | 80 | Post-emergence herbicidal effect LOLMU (Lolium multiflorum [15]): 90%
Nc1ncc(C(F)(F)F)c(N[C@@H]2CCCc3ccccc32)n1 [Example 1.60, N4-[(1R)-1,2,3,4-tetrahydronaphthalen-1-yl]-5-(trifluoromethyl)pyrimidine-2,4-diamine] |  |  |  |  |  |  |  |  |  |  |  |  |  |  | melting point: 120 to 121 °C
Cc1ccc2c(c1)C(Nc1cc(C(F)(F)F)nc(N)n1)C(C)C2 (racemic) [Example 1.31] |  |  | 100 | 100 |  | 100 | 80 |  | 90 |  |  | 100 |  | 90 | Pre-emergence herbicidal effect CYPES (Cyperus esculentus): 100%; Post-emergence herbicidal effect MATIN (Matricaria inodora [19]): 90%; Post-emergence herbicidal effect CHEAL (Chenopodium album): 80%
Nc1nc(N[C@@H]2CCCc3ccccc32)cc(C(F)F)n1 [Example 1.35] | 100 | 100 | 80 | 90 | 100 | 100 | 100 | 80 |  | 80 | 80 | 90 |  |  | 
N#Cc1c(N[C@@H]2CCCc3ccccc32)nc(N)nc1-c1ccccc1 [Example 1.53, 2-Amino-4-phenyl-6-[(1R)-1,2,3,4-tetrahydronaphthalen-1-ylamino]pyrimidine-5-carbonitrile] |  |  |  |  |  |  |  |  |  |  |  |  |  |  | chromatographic logP [18]: 2.87
